Measurements from patent US20070014721A1, “Hydrazide conjugates as imaging agents” (priority 2005, published 2007).
Like-named read-outs stand apart in the source and are kept apart here. *1 amine or outer side, *2 acyl side, *3 side chain or, on linkers, in order; H or OH if unused. Where a SMILES comes first, the peptide text is derived from it. [ ]: non-standard residue; d: D form. The star is where a group is joined. PABC = O=C(OCc1ccc(N[*:1])cc1)[*:2]; hPhe = N[C@@H](CCc1ccccc1)C(=O)O; X1 = CC(=O)NCCCCCC(=O)NN*; Boc = CC(C)(C)OC(=O)*; Nlys = NCCCCNCC(=O)O; X2 = CC(=O)NN*

Columns and labels:
Aminopeptidase N = Aminopeptidase N (Homo sapiens, UniProt P15144); assay: Aminopeptidase N cleavage of test substrates; format: biochemical; conditions: Boc removed from N-terminus before assay; 0.5 mM test substrate, 0.02 U APN, 37° C, 25 minutes
Aminopeptidase N, sequence (P15144 whole entry, species assumed): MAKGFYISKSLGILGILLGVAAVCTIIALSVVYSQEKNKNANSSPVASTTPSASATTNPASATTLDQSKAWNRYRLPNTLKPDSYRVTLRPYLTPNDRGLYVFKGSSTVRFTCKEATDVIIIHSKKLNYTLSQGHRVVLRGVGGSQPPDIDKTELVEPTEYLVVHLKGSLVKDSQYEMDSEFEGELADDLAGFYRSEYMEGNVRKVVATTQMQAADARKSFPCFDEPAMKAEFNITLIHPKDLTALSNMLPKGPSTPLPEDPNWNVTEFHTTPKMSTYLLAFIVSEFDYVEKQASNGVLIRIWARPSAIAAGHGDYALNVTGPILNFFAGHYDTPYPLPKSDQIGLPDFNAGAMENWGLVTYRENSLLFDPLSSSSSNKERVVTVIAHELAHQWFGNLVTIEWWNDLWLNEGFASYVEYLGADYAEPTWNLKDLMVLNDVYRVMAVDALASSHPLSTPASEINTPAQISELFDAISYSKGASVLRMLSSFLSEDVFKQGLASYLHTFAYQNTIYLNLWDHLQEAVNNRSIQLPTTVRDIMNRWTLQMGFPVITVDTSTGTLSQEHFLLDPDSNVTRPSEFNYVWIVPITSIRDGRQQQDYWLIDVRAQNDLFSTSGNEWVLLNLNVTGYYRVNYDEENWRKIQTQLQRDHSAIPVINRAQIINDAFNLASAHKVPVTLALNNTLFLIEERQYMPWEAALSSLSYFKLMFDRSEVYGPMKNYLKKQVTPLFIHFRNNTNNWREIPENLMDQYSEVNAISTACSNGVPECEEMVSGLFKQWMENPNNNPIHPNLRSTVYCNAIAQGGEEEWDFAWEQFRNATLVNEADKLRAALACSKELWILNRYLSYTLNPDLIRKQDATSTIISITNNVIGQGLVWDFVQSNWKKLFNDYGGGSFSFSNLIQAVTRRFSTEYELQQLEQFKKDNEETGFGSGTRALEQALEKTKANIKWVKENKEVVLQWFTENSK
Method: The test compounds were dissolved in 50:50 TFA:dichloromethane and allowed to stand at ambient temperature under nitrogen for 10 minutes to remove the Boc protecting group from the N-terminus amino acid. The solutions were concentrated and the resulting oily residue was dissolved in 50:50 acetonitrile:water and lyophilized. The resulting flocculent solids were used directly in the APN assay.
Aminopeptidase N cleaves amino acids at the N-terminus of proteins and peptides attached to another amino acid. A stock solution of test substrates was prepared in 100% DMSO at a concentration of 8 mM. The stock solution (4.7 μL) was added to buffer (50 mM Hepes/pH 7.5, 10 mM CaCl2, 0.1% Brij) for a final concentration of 0.5 mM test substrate in the reaction. To this reaction solution 0.02 U of the enzyme (APN) was added, the solution was mixed, and immediately 30 μL of the mix was transferred to HPLC vials containing acetic acid (15 μL) for t=0 minutes measurement. The rest of the mix in the test tube was incubated at 37° C. for 25 minutes. At the 25 minutes time point 30 μL of the mix was transferred to an HPLC vial containing acetic acid (15 μl) for the t=25 minute measurement. The test substrates and products were separated by reversed phase HPLC on a Zorbax SB-C18 column (4.6×150 mm, 5 micron) using a water:acetonitrile gradient containing 0.1% TFA at a flow rate of 1.0 mL/min and with UV detection. The peak areas were integrated and the substrate peak area was used to determine rate constant k in the following equation: K={(% hydrolyzed/100)*[S]}/[E]*[time] where S=test substrate concentration in μmoles
E=aminopeptidase N concentration in units/ml
K=μmoles of substrate hydrolyzed/minute/unit enzyme

[1] = system: Rabbit plaque aorta or normal rabbit aorta; assay: Ex vivo blood vessel binding assay; set-up: species or system New Zealand white rabbits; conditions: radiolabeled compound incubated with rabbit aorta (0.5 cm) in phosphate buffered saline for 2 hours at 37° C; bound compound as percentage of the incubated compound
Source text: Normal aorta was obtained from New Zealand white rabbits. Aorta bearing atherosclerotic plaque was obtained from New Zealand white rabbits balloon stripped along the abdominal aorta and placed on a high fat diet (0.5% cholesterol) for 16-22 weeks. Vascular injury was produced with a 3-F Fogarty catheter along the abdominal aorta and left iliofemoral artery. This procedure generates an accelerated complex lesion development with a lipid rich core covered by a fibrous cap in rabbits. Rabbit plaque aorta or normal rabbit aorta (0.5 cm) was incubated with 10 nCi of ^14C labeled compound or 1.5 μCi of ^99m Tc labeled compound or 0.135 μCi of ^111In labeled compound or 0.135 μCi of ^68Ga labeled compound or 0.135 µCi of ^153Gd labeled compound diluted in phosphate buffered saline (450 μL) for 2 hours at 37° C. The supernatant from this sample was collected and analyzed by HPLC to determine compound stability in presence of blood vessels. The blood vessel tissue was then washed with phosphate buffered saline (3×10 mL). Phosphate buffered saline (10 ml) was added to the tissue and incubated at 37° C. for 1 hour. The tissue was then washed with phosphate buffered saline (3×10 mL). The washed tissue was oxidized in a tissue oxidizer for C-14 labeled compounds. The counts in the oxidized tissue were determined on a beta counter. Blood vessels incubated with ^99m Tc labeled compound or ^111In labeled compound or ^68Ga labeled compound or ^153Gd labeled compound were counted on a gamma counter. The amount of compound bound to the tissue was determined as a percentage of the incubated compound. This was calculated using the following formula: [formula]

[2] = system: aorta of apolipoprotein E (apoE) knockout mouse; conditions: in vivo
Method: (§1) Mice were fed a high-fat diet to accelerate plaque formation and compounds were tested in the mice between 37-41 weeks on diet. Test compounds were radiolabeled (^14C, ^99mTc, or ^111In as described above) and administered at 0.02-4.0 mCi/kg to anesthetized mice in a single, bolus injection via the tail vein. Blood samples were collected via the tail between 0-30 minutes postinjection for pharmacokinetic analysis and mice were euthanized by CO2 at 60 minutes for tissue harvesting. The aorta were flushed with saline through the left ventricle exiting via the femoral vein. The aorta were then removed from the heart to the renal bifurcation and additional tissue samples collected (blood, muscle, liver, kidney, heart, lung, spleen and innominate artery). All samples were weighed and assayed for radioactivity. Tissue uptake is expressed as percent of injected dose per gram of tissue (% ID/g). The aorta to blood ratios were calculated from the % ID/g data.

[3] = system: aorta of atherosclerotic rabbit model; conditions: in vivo
Method: (§2) Atherosclerosis was induced in New Zealand White male rabbits (3 kg) with aortic balloon endothelial injury followed by feeding a 0.5% cholesterol diet for 22 weeks. Test compounds were radiolabeled(^14C, ^99mTc, or ^111In as described above) and administered at 0.02-1.0 mCi/kg to anesthetized rabbits in a single, bolus injection vis the marginal ear vein. Blood samples were collected from the central ear artery at 0, 2, 5, 7, 10, 15, 30, and 60 minutes post injection. Rabbits were euthanized at 60 minutes post injection for tissue harvesting (blood, muscle, bile, urine, kidney, liver, spleen, heart, lung, colon, small intestine, stomach, testes). Abdominal aorta (upper, middle, and lower) and left and right femoral arteries were collected. Both plaque bearing and non-plaque bearing rabbits were administered compounds to compare aorta uptake. All samples were weighed and assayed for radioactivity. Tissue uptake is expressed as percent of injected dose per gram of tissue (% ID/g). The aorta to blood ratios were calculated from the % ID/g data.

[4] = mouse, in vivo, iv
Method: as §1

[5] = system: aorta of atherosclerotic rabbit model; assay: In vivo rabbit aorta uptake study, atherosclerotic (plaque) rabbit; conditions: 60 minutes postinjection; for Aorta/Blood (Plaque Rabbit): calculated from the % ID/g data; for Aorta Uptake, % ID/g (Plaque Rabbit): marginal ear vein bolus
Method: as §2

[6] = system: aorta of apolipoprotein E (apoE) knockout mouse; assay: In vivo ApoE mouse aorta uptake study; conditions: 60 min postinjection; for Aorta (% ID/g): ApoE mouse on high-fat diet 37-41 weeks, tail vein bolus; for Aorta/Blood Ratio: ApoE mouse, calculated from the % ID/g data
Method: as §1

[7] = system: aorta of normal (non-plaque bearing) rabbit; assay: In vivo rabbit aorta uptake study, normal rabbit; set-up: species or system New Zealand White male rabbits; conditions: 60 minutes postinjection; for Aorta/Blood (Normal Rabbit): calculated from the % ID/g data; for Aorta Uptake, % ID/g (Normal Rabbit): marginal ear vein bolus
Source text: All samples were weighed and assayed for radioactivity.

Molecule | Rate of APN Hydrolysis of Test Substrates (Aminopeptidase N) | Tissue Binding % [1] | Aorta/Blood Ratio [2] | Aorta/Blood (Plaque Rabbit) [3] | tissue uptake at 1 h [4] | Aorta/Blood (Plaque Rabbit) [5] | Aorta Uptake, % ID/g (Plaque Rabbit) [5] | Aorta (% ID/g) [6] | Aorta/Blood Ratio [6] | Aorta/Blood (Normal Rabbit) [7] | Aorta Uptake, % ID/g (Normal Rabbit) [7]
CC(C)C[C@H](NC(=O)OC(C)(C)C)C(=O)Nc1ccc(COC(=O)N[C@H](CC(C)C)C(=O)NNC(=O)CCCCCN)cc1.O=C(O)C(F)(F)F [Example 13, N-((2R)-2-{[(4-{(2S)-2-[(tert-Butoxy)carbonylamino]-4-methylpentanoylamino}phenyl)methoxy]carbonylamino}-4-methylpentanoylamino)-6-aminohexanamide, Trifluoroacetic Acid Salt] | 0.33 μmoles/minute/U | – | – | – | – | – | – | – | – | – | –
CC(C)C[C@H](NC(=O)OC(C)(C)C)C(=O)N[C@H](CC(C)C)C(=O)NNC(=O)CCCCCN.O=C(O)C(F)(F)F [Example 80, N-((2R)-2-{(2S)-2-[(tert-Butoxy)carbonylamino]-4-methylpentanoylamino}-4-methylpentanoylamino)-6-aminohexanamide, Trifluoroacetic Acid Salt] | 0.00 μmoles/minute/U | – | – | – | – | – | – | – | – | – | –
CC(C)C[C@H](NC(=O)OC(C)(C)C)C(=O)Nc1ccc(C[C@@H](NC(=O)OC(C)(C)C)C(=O)NNC(=O)CCCCCN)cc1.O=CO [Example 83, N-[(2R)-3-(4-{(2S)-2-[(tert-Butoxy)carbonylamino]-4-methylpentanoylamino}phenyl)-2-[(tert-butoxy)carbonylamino]propanoylamino]-6-aminohexanamide, Formic Acid Salt] | 0.43 μmoles/minute/U | – | – | – | – | – | – | – | – | – | –
CC(=O)NCCCCCC(=O)NNC(=O)[C@@H](CC(C)C)NC(=O)OCc1ccc(NC(=O)[C@H](CC(C)C)NC(=O)[C@H](CC(C)C)NC(=O)CN(CCCCNC(=O)OC(C)(C)C)C(=O)[C@H](CC(C)C)NC(=O)[C@@H]2CCCN2C(C)=O)cc1 [Example 128, Ac-PL-NLys(Boc)˜LL-PABA-CO-d-Leu-Ahxh-H] (Ac-PL[Nlys](Boc)LL[PABC][dL]-X1) | – | 5.77% | 2.3 | 1.93 | – | – | – | – | – | – | –
CC(=O)NNC(=O)[C@@H](CC(C)C)NC(=O)OCc1ccc(NC(=O)[C@H](CC(C)C)NC(=O)[C@H](CCc2ccccc2)NC(=O)CN(CCCCNC(=O)OC(C)(C)C)C(=O)[C@H](CC(C)C)NC(=O)[C@@H]2CCCN2C(C)=O)cc1 [Example 142] (Ac-PL[Nlys](Boc)[hPhe]L[PABC][dL]-X2) | – | – | 1.9 | – | 2.1 %ID/g | – | – | – | – | – | –
Boc-d-Leu-Ahxh-H [Example 120] | – | 14.09% | – | – | – | 3.98 | 0.088 % ID/g | 8.9 % ID/g | 2.2 | – | –
Boc-d-Leu-Inph-H [Example 139] | – | 18.36% | – | – | – | 2.92 | 0.096 % ID/g | 17.2 % ID/g | 5.0 | – | –
Boc-d-Phe[p-(Ac-PL-NLys(Boc)˜Hphe-L-NH)]-Ahxh-H [Example 147] | – | 44.73% | 8.8 | 9.05 | – | – | – | – | – | – | –
H-d-1-Nal-Ambh-DTPA [Example 183] | – | 24.41% | – | – | – | – | – | 15.7 % ID/g | 11.7 | 4.72 | 0.146 % ID/g
H-d-Hphe-Ambh-DTPA [Example 203] | – | 17.96% | – | – | – | 2.76 | 0.127 % ID/g | 12.9 % ID/g | 8.7 | 4.78 | 0.129 % ID/g
H-d-Leu-Ahxh-Apa-DOTA [Example 215] | – | 11.54% | – | – | – | 1.31 | 0.092 % ID/g | – | – | – | –
H-d-Leu-Ahxh-DOTA [Example 155] | – | 3.49% | – | – | – | 1.67 | 0.080 % ID/g | 5.1 % ID/g | 2.0 | 2.21 | 0.065 % ID/g
H-d-Leu-Apah-Ahx-DTPA [Example 176] | – | 25.21% | – | – | – | – | – | 12.2 % ID/g | 13.3 | 4.95 | 0.123 % ID/g
H-d-Leu-Apah-DTPA [Example 159] | – | 10.10% | – | – | – | 4.08 | 0.083 % ID/g | 9.5 % ID/g | 3.0 | – | –
H-d-Leu-Apph-DTPA [Example 171] | – | 16.56% | – | – | – | 2.89 | 0.168 % ID/g | 6.7 % ID/g | 8.8 | 4.49 | 0.143 % ID/g
H-d-Phe-Apah-DTPA [Example 164] | – | 13.88% | – | – | – | 3.56 | 0.085 % ID/g | 8.2 % ID/g | 7.5 | – | –
H-d-Phe-Apph-DTPA [Example 174] | – | 17.15% | – | – | – | – | – | 8.7 % ID/g | 11.0 | 5.42 | 0.111 % ID/g
H-d-Trp-Ambh-DTPA [Example 208] | – | 14.91% | – | – | – | – | – | 14.8 % ID/g | 8.7 | 5.58 | 0.135 % ID/g
H-d-Val-Ahxh-DTPA [Example 191] | – | 3.02% | – | – | – | – | – | 5.3 % ID/g | 1.5 | – | –
[H-d-Cys(Bzl)-Apph]2EDTA[APEEPA-DTPA]2 [Example 186] | – | 7.78% | – | – | – | – | – | 7.0 % ID/g | 1.5 | – | –
